Assay results taken from patent publication US6355289B1, “Method for preserving tortillas made from corn or wheat” (Kemin Industries, Inc., priority 1996, dated 2002).

Legend:
[1] = food pH 5.4; cited from earlier work
[2] = test system: bacteria, mold, and yeast; test: Carbon dioxide production of tortillas from treated dough; conditions: antimicrobial added to propionic/phosphoric acid preparation
Excerpt: In the laboratory, shelf life of varying formulations of tortillas can be compared by monitoring the output of carbon dioxide produced by the bacteria, mold, and yeast.
Tortillas were then manufactured from the treated dough.

Row | SMILES | acid undissociated [1] | effectiveness in controlling fermented odor / preventing spoilage [2]
1 | O=C(O)c1ccccc1 [benzoic acid] | 7.75% | best qualities for preventing spoilage
2 | CCC(=O)O [propionic acid] | 20% | 
